Among the data in patent US20140107109A1, “AMINO-DIHYDROTHIAZINE AND AMINO-DIOXIDO DIHYDROTHIAZINE COMPOUNDS AS BETA-SECRETASE ANTAGONISTS AND METHODS OF USE” (Amgen Inc., priority 2012, published 2014) are IC50 values, retold here.

Test [1] concerns the target Beta Secretase enzyme (BACE1) (Homo sapiens, UniProt P56817). The test can be described thus: In vitro enzymatic BACE FRET assay. It counts as biochemical. The conditions noted are these: average IC50, enzyme assay; read-out: BACE1 FRET assay IC50. In short, it runs like this:
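BACE1 cleavage of a 50 nM fluorophore/quencher peptide FRET substrate ran for one hour in 0.05 M acetate pH 4.2, 10% DMSO, 100 uM genapol. Tris buffer raised pH to neutrality to stop the reaction before fluorescence was read (excitation 488 nm, […]).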

The next test concerns the target T1, Cathepsin D (Cat D) (Homo sapiens, UniProt P07339).
T1 construct: Recombinant Cat D was expressed in CHO cells; made in house; host or cells: CHO cells
The test can be described thus: In vitro enzymatic Cathepsin D (Cat D) FRET assay. The class given is biochemical. As to conditions: read-out: CatD IC50. The gist of the method: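 Recombinant Cat D expressed in CHO cells, used at 9 nM and pre-incubated one hour with serially diluted inhibitor in DMSO. Peptide substrate carries a fluorophore and quencher flanking the cleavage site; reaction stopped with Tris buffer raising pH to neutrality, then fluorescence read.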

Test [2] has as its system Aβ40 in conditioned medium of cells stably expressing Amyloid Precursor Protein (APP). The test can be described thus: In vitro BACE cell-based assay (HEK cell assay), Aβ40 sandwich ELISA. The conditions noted are these: Homo sapiens, HEK293. In short, it runs like this:
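APP-stably expressing cells (40K/well, grown 24 h in DMEM/10% FBS) were treated 24 h with compounds in 10-point dose response starting at 100 μM or 10 μM, 0.1% DMSO final. Secreted Aβ40 was measured by sandwich ELISA (pAb40 capture, biotinylated 6E10 detection, europium time-resolved fluorescence); IC50 from percent inhibition.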
In general terms: In an ELISA, binding on a coated surface is turned into a signal by an enzyme label.

T1 sequence (P07339 65-412, species assumed): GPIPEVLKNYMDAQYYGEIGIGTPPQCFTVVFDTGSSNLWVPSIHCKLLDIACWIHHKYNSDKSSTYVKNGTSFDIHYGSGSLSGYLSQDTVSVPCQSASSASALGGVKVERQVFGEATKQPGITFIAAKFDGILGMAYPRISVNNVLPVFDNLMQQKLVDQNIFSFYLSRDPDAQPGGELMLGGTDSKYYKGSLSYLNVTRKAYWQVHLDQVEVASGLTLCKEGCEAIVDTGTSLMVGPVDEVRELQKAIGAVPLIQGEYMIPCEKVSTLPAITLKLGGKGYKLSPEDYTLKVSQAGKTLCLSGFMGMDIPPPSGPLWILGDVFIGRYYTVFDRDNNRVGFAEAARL
Chain of Beta Secretase enzyme (BACE1) (P56817 46-501): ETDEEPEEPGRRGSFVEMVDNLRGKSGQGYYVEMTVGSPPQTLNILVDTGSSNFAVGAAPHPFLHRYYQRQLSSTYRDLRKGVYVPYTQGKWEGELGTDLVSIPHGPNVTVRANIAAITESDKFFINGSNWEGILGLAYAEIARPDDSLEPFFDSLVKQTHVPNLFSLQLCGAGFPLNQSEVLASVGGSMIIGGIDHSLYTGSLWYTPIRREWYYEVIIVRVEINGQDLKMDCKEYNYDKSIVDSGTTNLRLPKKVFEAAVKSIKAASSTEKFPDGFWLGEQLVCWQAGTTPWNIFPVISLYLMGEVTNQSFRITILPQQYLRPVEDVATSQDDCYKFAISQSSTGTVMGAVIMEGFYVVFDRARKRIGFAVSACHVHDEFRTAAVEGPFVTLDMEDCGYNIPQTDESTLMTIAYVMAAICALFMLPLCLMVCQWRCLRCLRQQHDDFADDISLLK

For `Cc1cc(Oc2ccc(F)c([C@]3(C)CS(=O)(=O)C(C)(C)C(N)=N3)c2)ncc1Cl` [Example 276, (5R)-5-(5-((5-chloro-4-methyl-2-pyridinyl)oxy)-2-fluorophenyl)-2,2,5-trimethyl-5,6-dihydro-2H-1,4-thiazin-3-amine 1,1-dioxide], the IC50 (in general, the concentration at which inhibition is half-maximal) in test [1] came out at 2.71 µM; at Cathepsin D (Cat D) it was 421 µM; in test [2] (average IC50, cell assay), 2.63 µM.
Regarding `CC1(C)C(N)=N[C@](C)(c2cc(Oc3ncc(C(F)(F)F)cc3F)ccc2F)CS1(=O)=O` [Example 277, (5R)-5-(2-fluoro-5-((3-fluoro-5-(trifluoromethyl)-2-pyridinyl)oxy)phenyl)-2,2,5-trimethyl-5,6-dihydro-2H-1,4-thiazin-3-amine 1,1-dioxide], the IC50 in test [1] was determined as 1.21 µM; on Cathepsin D (Cat D) it was 331 µM; in test [2] (average IC50, cell assay), 1.15 µM.
`CC1(C)C(N)=N[C@](C)(c2cc(Oc3ncccc3C(F)(F)F)ccc2F)CS1(=O)=O` [Example 278, (5R)-5-(2-fluoro-5-((3-(trifluoromethyl)-2-pyridinyl)oxy)phenyl)-2,2,5-trimethyl-5,6-dihydro-2H-1,4-thiazin-3-amine 1,1-dioxide]: the IC50 in test [1] was determined as 0.341 µM; on Cathepsin D (Cat D) it was 147 µM; in test [2] (average IC50, cell assay), 0.359 µM.
For `CC1(C)C(N)=N[C@](C)(c2cc(Oc3ccc(C(F)(F)F)cn3)ccc2F)CS1(=O)=O` [Example 279, (5R)-5-(2-fluoro-5-((5-(trifluoromethyl)-2-pyridinyl)oxy)phenyl)-2,2,5-trimethyl-5,6-dihydro-2H-1,4-thiazin-3-amine 1,1-dioxide], the IC50 in test [1] was 5.6 µM; on Cathepsin D (Cat D) it was 188 µM; in test [2] (average IC50, cell assay) it was 2.09 µM.
On to `CC1(C)C(N)=N[C@](C)(c2cc(Oc3cc(C#N)ccn3)ccc2F)CS1(=O)=O` [Example 280, 2-(3-((3R)-5-amino-3,6,6-trimethyl-1,1-dioxido-3,6-dihydro-2H-1,4-thiazin-3-yl)-4-fluorophenoxy)-4-pyridinecarbonitrile], for which the IC50 in test [1] was 0.039 µM; at Cathepsin D (Cat D), 395 µM; in test [2] (average IC50, cell assay), 0.0521 µM.
Turning to `CC1(C)C(N)=N[C@](C)(c2cc(Oc3cc(-c4ccc(Cl)cn4)ccn3)ccc2F)CS1(=O)=O` [Example 281, (5R)-5-(5-((5-chloro-2,4′-bipyridin-2′-yl)oxy)-2-fluorophenyl)-2,2,5-trimethyl-5,6-dihydro-2H-1,4-thiazin-3-amine 1,1-dioxide], the IC50 is 0.807 µM in test [1]; 61.2 µM at Cathepsin D (Cat D); 1.12 µM in test [2] (average IC50, cell assay).
The matching figures for `CC1(C)C(N)=N[C@](C)(c2cc(Oc3ccc(C#N)cn3)ccc2F)CS1(=O)=O` [Example 282, 6-(3-((3R)-5-amino-3,6,6-trimethyl-1,1-dioxido-3,6-dihydro-2H-1,4-thiazin-3-yl)-4-fluorophenoxy)-3-pyridinecarbonitrile]: 1.56 µM, 227 µM and 1.15 µM.
As for `CC1(C)C(N)=N[C@](C)(c2cc(Oc3cccc(C#N)n3)ccc2F)CS1(=O)=O` [Example 283, 6-(3-((3R)-5-amino-3,6,6-trimethyl-1,1-dioxido-3,6-dihydro-2H-1,4-thiazin-3-yl)-4-fluorophenoxy)-2-pyridinecarbonitrile], the IC50 was found to be 0.0919 µM in test [1]; 12.9 µM on Cathepsin D (Cat D); 0.0828 µM in test [2] (average IC50, cell assay).
Take `CC1(C)C(N)=N[C@](C)(c2cc(Oc3ccc(F)c(C(F)(F)F)n3)ccc2F)CS1(=O)=O` [Example 284, (5R)-5-(2-fluoro-5-((5-fluoro-6-(trifluoromethyl)-2-pyridinyl)oxy)phenyl)-2,2,5-trimethyl-5,6-dihydro-2H-1,4-thiazin-3-amine 1,1-dioxide]: the 50% inhibitory concentration (IC50) in test [1] was determined as 0.769 µM; on Cathepsin D (Cat D), 79.1 µM; in test [2] (average IC50, cell assay) it was 1.64 µM.
In the same order, the values of `CC1(C)C(N)=N[C@](C)(c2cc(Oc3cc(Br)ccn3)ccc2F)CS1(=O)=O` [Example 285, (5R)-5-(5-((4-bromo-2-pyridinyl)oxy)-2-fluorophenyl)-2,2,5-trimethyl-5,6-dihydro-2H-1,4-thiazin-3-amine 1,1-dioxide] are 0.0375 µM, 374 µM and 0.0918 µM.
Take `CC#Cc1ccnc(Oc2ccc(F)c([C@]3(C)CS(=O)(=O)C(C)(C)C(N)=N3)c2)c1` [Example 286, (5R)-5-(2-fluoro-5-((4-(1-propyn-1-yl)-2-pyridinyl)oxy)phenyl)-2,2,5-trimethyl-5,6-dihydro-2H-1,4-thiazin-3-amine 1,1-dioxide]: the IC50 in test [1] was 0.228 µM; at Cathepsin D (Cat D), 119 µM; in test [2] (average IC50, cell assay), 0.787 µM.
As for `CC1(C)C(N)=N[C@](C)(c2cc(Oc3cc(-c4ccccc4)ccn3)ccc2F)CS1(=O)=O` [Example 289, (5R)-5-(2-fluoro-5-((4-phenyl-2-pyridinyl)oxy)phenyl)-2,2,5-trimethyl-5,6-dihydro-2H-1,4-thiazin-3-amine 1,1-dioxide], the IC50 in test [1] is 0.0509 µM; on Cathepsin D (Cat D), 92.7 µM; in test [2] (average IC50, cell assay), 0.568 µM.
The matching figures for `CC1(C)C(N)=N[C@](C)(c2cc(Oc3cc(-c4ccncc4)ccn3)ccc2F)CS1(=O)=O` [Example 290, (5R)-5-(5-(4,4′-bipyridin-2-yloxy)-2-fluorophenyl)-2,2,5-trimethyl-5,6-dihydro-2H-1,4-thiazin-3-amine 1,1-dioxide]: 0.328 µM, 826 µM and 0.318 µM.
Consider `CC1(C)C(N)=N[C@](C)(c2cc(Oc3nccc4ccsc34)ccc2F)CS1(=O)=O` [Example 291, (5R)-5-(2-fluoro-5-(thieno[2,3-c]pyridin-7-yloxy)phenyl)-2,2,5-trimethyl-5,6-dihydro-2H-1,4-thiazin-3-amine 1,1-dioxide], for which the concentration for half-maximal inhibition (IC50) was 0.517 µM in test [1]; 242 µM at Cathepsin D (Cat D); 0.914 µM in test [2] (average IC50, cell assay).
With `CC1(C)C(N)=N[C@](C)(c2cc(Oc3ncc(C(N)=O)c4sccc34)ccc2F)CS1(=O)=O` [Example 292, 4-(3-((3R)-5-amino-3,6,6-trimethyl-1,1-dioxido-3,6-dihydro-2H-1,4-thiazin-3-yl)-4-fluorophenoxy)thieno[3,2-c]pyridine-7-carboxamide], the IC50 in test [1] amounted to 2.01 µM; on Cathepsin D (Cat D), 219 µM; in test [2] (average IC50, HEK cell assay), 2.23 µM.
In the case of `CC1(C)C(N)=N[C@](C)(c2cc(Oc3nccc(-c4ccccc4)c3C#N)ccc2F)CS1(=O)=O` [Example 293, 2-(3-((3R)-5-amino-3,6,6-trimethyl-1,1-dioxido-3,6-dihydro-2H-1,4-thiazin-3-yl)-4-fluorophenoxy)-4-phenyl-3-pyridinecarbonitrile], the IC50 came out at 0.836 µM in test [1]; 50.9 µM on Cathepsin D (Cat D); 0.68 µM in test [2] (average IC50, HEK cell assay).
In the same order, the values of `CC1(C)C(N)=N[C@](C)(c2cc(Oc3nccc4ccccc34)ccc2F)CS1(=O)=O` [Example 294, (5R)-5-(2-fluoro-5-(1-isoquinolinyloxy)phenyl)-2,2,5-trimethyl-5,6-dihydro-2H-1,4-thiazin-3-amine 1,1-dioxide] are 1.05 µM, 202 µM and 1.14 µM.
The matching figures for `Cc1cc(C)c(C#N)c(Oc2ccc(F)c([C@]3(C)CS(=O)(=O)C(C)(C)C(N)=N3)c2)n1` [Example 295, 2-(3-((3R)-5-amino-3,6,6-trimethyl-1,1-dioxido-3,6-dihydro-2H-1,4-thiazin-3-yl)-4-fluorophenoxy)-4,6-dimethyl-3-pyridinecarbonitrile]: 2.64 µM, 1690 µM and 2.48 µM.
The matching figures for `Cc1ccc(C#N)c(Oc2ccc(F)c([C@]3(C)CS(=O)(=O)C(C)(C)C(N)=N3)c2)n1` [Example 296, 2-(3-((3R)-5-amino-3,6,6-trimethyl-1,1-dioxido-3,6-dihydro-2H-1,4-thiazin-3-yl)-4-fluorophenoxy)-6-methyl-3-pyridinecarbonitrile]: 0.263 µM, 232 µM and 0.515 µM.
Turning to `COc1cccnc1Oc1ccc(F)c([C@]2(C)CS(=O)(=O)C(C)(C)C(N)=N2)c1` [Example 297, (5R)-5-(2-fluoro-5-((3-methoxy-2-pyridinyl)oxy)phenyl)-2,2,5-trimethyl-5,6-dihydro-2H-1,4-thiazin-3-amine 1,1-dioxide], the IC50 in test [1] was determined as 0.202 µM; at Cathepsin D (Cat D), 975 µM; in test [2] (average IC50, HEK cell assay), 0.219 µM.
Regarding `Cc1cc(C(F)(F)F)cc(Oc2ccc(F)c([C@]3(C)CS(=O)(=O)C(C)(C)C(N)=N3)c2)n1` [Example 298, (5R)-5-(2-fluoro-5-((6-methyl-4-(trifluoromethyl)-2-pyridinyl)oxy)phenyl)-2,2,5-trimethyl-5,6-dihydro-2H-1,4-thiazin-3-amine 1,1-dioxide], the IC50 was found to be 0.106 µM in test [1]; 547 µM on Cathepsin D (Cat D); 0.737 µM in test [2] (average IC50, HEK cell assay).
Regarding `CC1(C)C(N)=N[C@](C)(c2cc(Oc3ncc(Cl)cc3Cl)ccc2F)CS1(=O)=O` [Example 299, (5R)-5-(5-((3,5-dichloro-2-pyridinyl)oxy)-2-fluorophenyl)-2,2,5-trimethyl-5,6-dihydro-2H-1,4-thiazin-3-amine 1,1-dioxide], the IC50 in test [1] was 0.174 µM; at Cathepsin D (Cat D) it was 82.4 µM; in test [2] (average IC50, HEK cell assay), 0.796 µM.
